# Data: ChEMBL document CHEMBL1201862, “PubChem BioAssay data set” (2004)
# Active and inactive are the calls of the source.
# How the values were obtained:
# [1] = IC50 of Artemis nuclease activity blockers – biochemical, fluorescence intensity, dose response (AID 720701); assay type: functional;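 note: Artemis endonuclease enzyme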
# [2] = OVCAR8 cell viability loss – plate reader, dry powder samples, PAX8 project, dose response (AID 743197); assay type: functional, cell-based; details: OVCAR-8
# [3] = OVCAR-3 cell viability loss – plate reader, dry powder samples, PAX8 inhibitor project, dose response (AID 743044); assay type: functional, cell-based
# Paired box protein Pax-8 = Paired box protein Pax-8 (Homo sapiens, UniProt Q06710); experiment: PAX8 transcriptional activity inhibition in RMG-I – RMG-I cells, luciferase, cherry-pick, dose response (AID 687027); assay type: functional, cell-based;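 note: luciferase reporter driven by Pax8 target thyroperoxidase promoter measured by SteadyGlo luminescence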
# [4] = IGROV1 cell killing – plate reader, dry powder samples, PAX8 inhibitor project, dose response (AID 743043); assay type: functional, cell-based; details: IGROV-1
# BJ [5] = experiment: BJ-TERT-LT-ST fibroblast viability loss – cell-based, RAS-independent, luminescence, dose response (AID 1935); assay type: functional; details: Homo sapiens;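 note: BJ fibroblasts immortalized with TERT plus LT and ST oncogenes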
# [6] = DRD fibroblast viability loss – cell-based, non-viral oncogenic, luminescence, dose response (AID 1934); assay type: functional; details: Homo sapiens
# BJ [7] = experiment: BJ-TERT fibroblast viability loss – cell-based, RAS-independent, luminescence, dose response (AID 1933); assay type: functional; details: Homo sapiens
# BJ [8] = experiment: cells; assay type: functional, cell-based; details: Homo sapiens
# [9] = growth inhibition of PfATP4-mutant resistant parasites – NITD609-resistant line, SYBR Green, dry powder, dose response (AID 1159571); assay type: functional, cell-based;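 note: parasites synchronized at ring stage by sorbitol before testing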
# [10] = growth inhibition of yeast DHODH-expressing 3D7 parasites – SYBR Green, dry powder samples, dose response (AID 1159570); assay type: functional, cell-based;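 note: parasite growth measured after 72 hours of compound exposure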
# [11] = Dd2 malaria parasite growth inhibition potency – SYBR Green, dry powder samples, dose response (AID 1159566); assay type: functional, cell-based;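 note: potency for growth inhibition with lower SYBR green DNA signal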
# [12] = P. falciparum Dd2 growth inhibitors, dose response, SYBR Green, cherry-picked samples (AID 1159567); assay type: functional, cell-based
# Chain of Paired box protein Pax-8 (Q06710 whole entry): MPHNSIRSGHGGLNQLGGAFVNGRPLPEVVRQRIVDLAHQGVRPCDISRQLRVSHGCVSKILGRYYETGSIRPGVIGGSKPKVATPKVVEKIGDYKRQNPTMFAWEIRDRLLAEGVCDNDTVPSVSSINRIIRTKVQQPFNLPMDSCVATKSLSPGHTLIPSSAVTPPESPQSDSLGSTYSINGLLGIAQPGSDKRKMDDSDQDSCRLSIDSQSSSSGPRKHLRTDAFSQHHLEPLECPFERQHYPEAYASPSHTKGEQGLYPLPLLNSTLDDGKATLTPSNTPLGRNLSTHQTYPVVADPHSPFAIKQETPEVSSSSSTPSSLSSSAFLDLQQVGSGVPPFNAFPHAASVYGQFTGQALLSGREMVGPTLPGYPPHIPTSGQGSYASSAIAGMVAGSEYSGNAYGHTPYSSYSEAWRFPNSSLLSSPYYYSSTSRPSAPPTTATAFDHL
compound,measurement,setting,value
Oc1ccc2ccccc2c1/C=N/c1nc2c(s1)CCCC2,IC50,[1],> 20 µM (inactive)
COc1cccc(-c2ccc3c(c2)[C@@H]2[C@@H](CCN2S(=O)(=O)c2ccccc2OC)[C@H](CO)N3C)c1,AC50,[2],27.8 µM (active)
same,AC50,[3],18 µM (active)
same,AC50,Paired box protein Pax-8,10.3 µM (active)
same,AC50,[4],50.6 µM (active)
COc1cccc(-c2cn3nc4c(nc3n2)CCCC4)c1,EC50,BJ [5],> 150 µM (not active)
same,EC50,[6],12.9 µM (active)
same,EC50,BJ [7],16.2 µM (active)
same,EC50,BJ [8],21.6 µM (active)
same,IC50,[1],> 20 µM (inactive)
CC(=O)N(/N=C1\Sc2ccccc2C1=O)c1ccccc1,IC50,[1],6.46 µM (active)
C[C@H]1CN([C@@H](C)CO)S(=O)(=O)c2ccc(-c3ccc(C#N)cc3)cc2O[C@H]1CN(C)CC1CC1,AC50,[9],3.08 µM (active)
same,AC50,[10],2.79 µM (active)
same,AC50,[11],1.76 µM (active)
same,AC50,[12],2.27 µM (active)
